Laboratory results from US12479847B2 (DANA-FARBER CANCER INSTITUTE, INC., priority 2019, dated 2025).

Legend:
Experiment in all cases: KINOMEscan (ScanMAX) kinase profiling
Type in all cases: binding
panel of 468 kinases [1] = molecular target: T1, panel of 468 kinases (Homo sapiens, UniProt Q9BZL6); details: PRKD2; 1 μM; read-out: % control
T1 construct: purchased KINOMEscan (ScanMAX) service
T1 sequence (Q9BZL6 1-878): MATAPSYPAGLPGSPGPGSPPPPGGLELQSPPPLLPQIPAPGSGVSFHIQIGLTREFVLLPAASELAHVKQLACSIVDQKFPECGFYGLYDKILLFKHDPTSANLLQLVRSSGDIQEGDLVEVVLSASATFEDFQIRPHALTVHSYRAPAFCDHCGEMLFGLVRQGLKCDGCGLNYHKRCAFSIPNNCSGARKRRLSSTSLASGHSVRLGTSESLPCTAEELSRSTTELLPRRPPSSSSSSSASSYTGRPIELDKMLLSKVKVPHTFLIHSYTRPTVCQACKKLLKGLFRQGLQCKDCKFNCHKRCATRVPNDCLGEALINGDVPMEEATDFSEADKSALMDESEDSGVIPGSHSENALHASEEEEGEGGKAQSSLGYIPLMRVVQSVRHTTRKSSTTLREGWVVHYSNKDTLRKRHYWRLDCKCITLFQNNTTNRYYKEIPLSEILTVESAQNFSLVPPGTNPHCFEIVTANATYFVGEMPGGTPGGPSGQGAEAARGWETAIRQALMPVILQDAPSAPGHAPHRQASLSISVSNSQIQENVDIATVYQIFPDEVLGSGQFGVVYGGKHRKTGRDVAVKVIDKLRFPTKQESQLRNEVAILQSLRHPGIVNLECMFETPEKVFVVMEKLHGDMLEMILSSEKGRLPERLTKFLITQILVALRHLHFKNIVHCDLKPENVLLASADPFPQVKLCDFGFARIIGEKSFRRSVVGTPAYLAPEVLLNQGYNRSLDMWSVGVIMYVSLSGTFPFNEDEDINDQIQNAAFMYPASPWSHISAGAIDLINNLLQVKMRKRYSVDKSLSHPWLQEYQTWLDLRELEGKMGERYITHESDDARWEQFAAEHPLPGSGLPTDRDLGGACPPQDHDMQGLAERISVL

panel of 468 kinases [2] = molecular target: T2, panel of 468 kinases (Homo sapiens, UniProt Q9UQM7); details: CAMK2A; 1 μM; read-out: % control
T2 construct: purchased KINOMEscan (ScanMAX) service
T2 sequence (Q9UQM7 whole entry): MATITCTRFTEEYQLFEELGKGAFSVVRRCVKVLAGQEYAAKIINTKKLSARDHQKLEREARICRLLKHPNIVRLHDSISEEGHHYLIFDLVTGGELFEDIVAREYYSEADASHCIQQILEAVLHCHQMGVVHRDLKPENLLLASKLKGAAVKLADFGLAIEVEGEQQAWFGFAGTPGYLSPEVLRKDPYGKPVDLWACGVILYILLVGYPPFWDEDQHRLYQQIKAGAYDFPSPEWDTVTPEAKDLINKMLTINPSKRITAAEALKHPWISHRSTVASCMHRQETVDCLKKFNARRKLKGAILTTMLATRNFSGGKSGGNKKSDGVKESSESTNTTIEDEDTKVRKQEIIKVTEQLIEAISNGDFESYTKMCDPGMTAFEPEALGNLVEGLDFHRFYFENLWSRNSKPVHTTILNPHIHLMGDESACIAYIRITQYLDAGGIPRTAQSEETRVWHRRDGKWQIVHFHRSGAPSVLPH

panel of 468 kinases [3] = molecular target: T3, panel of 468 kinases (Homo sapiens, UniProt P17612); details: PKAC-alpha; 1 μM; read-out: % control
T3 construct: purchased KINOMEscan (ScanMAX) service

panel of 468 kinases [4] = molecular target: T4, panel of 468 kinases (Homo sapiens, UniProt Q13131); details: AMPK-alpha1; 1 μM; read-out: % control
T4 construct: purchased KINOMEscan (ScanMAX) service
T4 sequence (Q13131 whole entry): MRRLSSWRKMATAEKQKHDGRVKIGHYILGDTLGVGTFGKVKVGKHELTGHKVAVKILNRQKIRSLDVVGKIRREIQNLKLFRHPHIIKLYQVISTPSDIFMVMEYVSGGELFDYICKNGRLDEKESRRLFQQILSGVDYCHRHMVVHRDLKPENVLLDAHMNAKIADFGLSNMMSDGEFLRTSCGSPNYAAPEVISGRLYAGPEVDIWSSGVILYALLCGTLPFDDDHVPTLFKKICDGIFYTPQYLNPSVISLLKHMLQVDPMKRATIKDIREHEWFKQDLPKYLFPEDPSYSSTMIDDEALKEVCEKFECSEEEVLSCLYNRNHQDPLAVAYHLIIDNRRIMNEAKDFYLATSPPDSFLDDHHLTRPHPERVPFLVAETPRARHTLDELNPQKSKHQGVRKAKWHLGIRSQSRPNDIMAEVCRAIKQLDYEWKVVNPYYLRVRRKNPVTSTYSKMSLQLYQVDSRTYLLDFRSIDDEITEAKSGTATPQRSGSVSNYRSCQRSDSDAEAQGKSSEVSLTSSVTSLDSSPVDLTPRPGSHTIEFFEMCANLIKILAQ

panel of 468 kinases [5] = molecular target: T5, panel of 468 kinases (Homo sapiens, UniProt P00533); details: EGFR; 1 μM; read-out: % control
T5 construct: purchased KINOMEscan (ScanMAX) service
T5 sequence (P00533 25-1210): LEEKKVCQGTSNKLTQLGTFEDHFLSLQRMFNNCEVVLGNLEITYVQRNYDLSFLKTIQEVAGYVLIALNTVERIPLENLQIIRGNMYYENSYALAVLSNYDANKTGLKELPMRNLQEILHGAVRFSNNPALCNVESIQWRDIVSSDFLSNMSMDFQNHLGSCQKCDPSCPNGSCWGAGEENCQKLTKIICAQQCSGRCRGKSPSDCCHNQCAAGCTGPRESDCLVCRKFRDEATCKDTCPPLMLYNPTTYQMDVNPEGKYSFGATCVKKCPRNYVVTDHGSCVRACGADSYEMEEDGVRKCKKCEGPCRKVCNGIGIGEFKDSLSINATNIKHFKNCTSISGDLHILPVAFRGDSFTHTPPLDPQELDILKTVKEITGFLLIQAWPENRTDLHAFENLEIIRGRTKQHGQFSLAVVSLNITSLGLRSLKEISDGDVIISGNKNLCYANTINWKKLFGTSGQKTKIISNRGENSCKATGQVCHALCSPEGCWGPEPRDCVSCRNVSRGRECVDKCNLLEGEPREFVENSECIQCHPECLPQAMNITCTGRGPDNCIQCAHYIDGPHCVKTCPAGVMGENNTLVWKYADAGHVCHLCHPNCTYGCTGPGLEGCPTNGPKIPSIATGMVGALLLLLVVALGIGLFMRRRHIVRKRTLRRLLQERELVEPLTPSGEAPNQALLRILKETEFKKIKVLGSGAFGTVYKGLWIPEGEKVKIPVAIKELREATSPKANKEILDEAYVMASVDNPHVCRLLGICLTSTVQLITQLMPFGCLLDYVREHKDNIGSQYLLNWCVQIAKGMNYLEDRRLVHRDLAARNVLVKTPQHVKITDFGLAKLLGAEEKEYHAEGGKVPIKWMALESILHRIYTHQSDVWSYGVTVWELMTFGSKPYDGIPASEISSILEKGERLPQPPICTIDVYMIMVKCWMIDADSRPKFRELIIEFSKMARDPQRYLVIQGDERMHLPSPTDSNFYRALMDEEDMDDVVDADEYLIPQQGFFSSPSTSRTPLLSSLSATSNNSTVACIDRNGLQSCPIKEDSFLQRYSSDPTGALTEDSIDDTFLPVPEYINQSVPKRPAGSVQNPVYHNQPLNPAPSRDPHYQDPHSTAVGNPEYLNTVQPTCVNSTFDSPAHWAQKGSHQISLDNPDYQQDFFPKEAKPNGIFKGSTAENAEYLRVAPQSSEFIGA

panel of 468 kinases [6] = molecular target: T6, panel of 468 kinases (Homo sapiens, UniProt Q96PY6); details: NEK1; 1 μM; read-out: % control
T6 construct: purchased KINOMEscan (ScanMAX) service
T6 sequence (Q96PY6 1-1258): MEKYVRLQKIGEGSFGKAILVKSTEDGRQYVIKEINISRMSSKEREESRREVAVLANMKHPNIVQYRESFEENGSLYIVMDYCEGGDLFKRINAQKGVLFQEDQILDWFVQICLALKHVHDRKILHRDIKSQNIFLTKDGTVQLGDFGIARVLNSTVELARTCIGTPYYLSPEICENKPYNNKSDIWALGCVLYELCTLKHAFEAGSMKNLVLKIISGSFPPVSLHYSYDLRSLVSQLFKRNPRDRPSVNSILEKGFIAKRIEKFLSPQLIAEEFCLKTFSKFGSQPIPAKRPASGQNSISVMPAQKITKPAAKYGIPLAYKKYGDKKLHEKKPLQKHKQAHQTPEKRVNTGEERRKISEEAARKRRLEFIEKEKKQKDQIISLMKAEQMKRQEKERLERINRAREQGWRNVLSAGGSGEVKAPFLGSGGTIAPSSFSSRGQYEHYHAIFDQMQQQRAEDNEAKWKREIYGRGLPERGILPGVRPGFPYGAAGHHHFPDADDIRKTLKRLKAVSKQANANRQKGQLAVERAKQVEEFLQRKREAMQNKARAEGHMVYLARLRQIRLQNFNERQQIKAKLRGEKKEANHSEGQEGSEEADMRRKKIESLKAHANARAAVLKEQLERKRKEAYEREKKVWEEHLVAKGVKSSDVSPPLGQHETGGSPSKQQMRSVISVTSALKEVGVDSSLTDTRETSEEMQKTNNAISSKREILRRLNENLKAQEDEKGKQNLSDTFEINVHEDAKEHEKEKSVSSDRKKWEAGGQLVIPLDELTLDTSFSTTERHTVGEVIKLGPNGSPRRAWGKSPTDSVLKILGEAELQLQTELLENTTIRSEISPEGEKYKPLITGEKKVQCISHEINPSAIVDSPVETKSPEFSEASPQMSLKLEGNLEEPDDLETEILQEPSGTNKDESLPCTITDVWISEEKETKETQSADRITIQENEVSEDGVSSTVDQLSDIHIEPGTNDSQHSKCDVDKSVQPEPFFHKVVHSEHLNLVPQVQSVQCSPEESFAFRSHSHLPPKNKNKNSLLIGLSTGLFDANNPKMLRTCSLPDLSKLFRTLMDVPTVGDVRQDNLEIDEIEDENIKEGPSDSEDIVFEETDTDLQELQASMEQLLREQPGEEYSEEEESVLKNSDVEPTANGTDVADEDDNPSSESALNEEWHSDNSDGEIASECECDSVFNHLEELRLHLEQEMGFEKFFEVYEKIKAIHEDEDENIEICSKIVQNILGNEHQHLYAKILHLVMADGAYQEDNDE

panel of 468 kinases [7] = molecular target: T7, panel of 468 kinases (Homo sapiens, UniProt Q96NX5); details: CAMK1G; 1 μM; read-out: % control
T7 construct: purchased KINOMEscan (ScanMAX) service
T7 sequence (Q96NX5 whole entry): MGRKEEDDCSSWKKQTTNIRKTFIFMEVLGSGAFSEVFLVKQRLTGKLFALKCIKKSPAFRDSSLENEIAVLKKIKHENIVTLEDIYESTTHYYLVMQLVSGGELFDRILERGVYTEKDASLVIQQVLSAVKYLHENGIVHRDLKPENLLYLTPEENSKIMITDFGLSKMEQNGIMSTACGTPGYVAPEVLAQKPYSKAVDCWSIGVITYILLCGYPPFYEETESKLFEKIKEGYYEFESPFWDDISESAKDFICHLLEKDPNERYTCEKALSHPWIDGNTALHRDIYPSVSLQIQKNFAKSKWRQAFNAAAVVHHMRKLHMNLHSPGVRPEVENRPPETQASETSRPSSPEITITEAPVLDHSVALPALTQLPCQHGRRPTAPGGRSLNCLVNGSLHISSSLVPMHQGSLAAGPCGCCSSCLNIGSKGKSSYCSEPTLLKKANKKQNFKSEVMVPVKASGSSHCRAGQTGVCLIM

panel of 468 kinases [8] = molecular target: T8, panel of 468 kinases (Homo sapiens, UniProt Q9Y4K4); details: MAP4K5; 1 μM; read-out: % control
T8 construct: purchased KINOMEscan (ScanMAX) service
T8 sequence (Q9Y4K4 whole entry): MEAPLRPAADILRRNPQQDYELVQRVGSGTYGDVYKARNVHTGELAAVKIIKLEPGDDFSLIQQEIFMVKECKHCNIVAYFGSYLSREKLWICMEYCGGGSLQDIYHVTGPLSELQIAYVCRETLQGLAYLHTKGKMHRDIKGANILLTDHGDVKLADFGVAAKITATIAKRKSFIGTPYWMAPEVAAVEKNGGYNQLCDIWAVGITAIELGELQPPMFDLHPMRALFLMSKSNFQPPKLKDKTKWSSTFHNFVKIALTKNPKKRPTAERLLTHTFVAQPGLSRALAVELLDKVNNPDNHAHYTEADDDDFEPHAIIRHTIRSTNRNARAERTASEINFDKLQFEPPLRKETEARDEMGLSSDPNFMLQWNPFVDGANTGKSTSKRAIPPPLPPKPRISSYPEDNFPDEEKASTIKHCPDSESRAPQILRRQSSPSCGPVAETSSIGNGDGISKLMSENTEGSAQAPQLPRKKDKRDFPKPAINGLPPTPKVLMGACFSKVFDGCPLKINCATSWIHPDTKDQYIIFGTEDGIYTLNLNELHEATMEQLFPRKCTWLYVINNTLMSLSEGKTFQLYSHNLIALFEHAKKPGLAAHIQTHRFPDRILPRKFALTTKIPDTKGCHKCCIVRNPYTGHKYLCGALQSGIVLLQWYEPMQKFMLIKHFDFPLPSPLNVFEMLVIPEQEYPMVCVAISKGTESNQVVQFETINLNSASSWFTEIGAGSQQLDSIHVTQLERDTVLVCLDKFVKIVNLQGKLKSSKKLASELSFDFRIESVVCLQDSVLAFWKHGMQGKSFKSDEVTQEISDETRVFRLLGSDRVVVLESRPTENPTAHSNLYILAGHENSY

Row | Compound | remaining binding at 1 µM (panel of 468 kinases [1]) [%] | remaining binding at 1 µM (panel of 468 kinases [2]) [%] | remaining binding at 1 µM (panel of 468 kinases [3]) [%] | remaining binding at 1 µM (panel of 468 kinases [4]) [%] | remaining binding at 1 µM (panel of 468 kinases [5]) [%] | remaining binding at 1 µM (panel of 468 kinases [6]) [%] | remaining binding at 1 µM (panel of 468 kinases [7]) [%] | remaining binding at 1 µM (panel of 468 kinases [8]) [%]
1 | CNc1nc(Nc2ccc(S(=O)(=O)N3CCC(N4CCOCC4)CC3)cc2OC)nc2[nH]cc(Cl)c12 [Compound 12, 5-chloro-N2-(2-methoxy-4-((4-morpholinopiperidin-1-yl)sulfonyl)phenyl)-N4-methyl-7H-pyrrolo[2,3-d]pyrimidine-2,4-diamine] | 37 | 100 | 100 | 100 | 89 | 100 | 96 | 100
2 | CNc1nc(Nc2ccc(C(=O)N3CCC(N4CCOCC4)CC3)c3c2OCO3)nc2[nH]cc(Cl)c12 [Compound 75, (7-((5-chloro-4-(methylamino)-7H-pyrrolo[2,3-d]pyrimidin-2-yl)amino)benzo[d][1,3]dioxol-4-yl)(4-morpholinopiperidin-1-yl)methanone] | 2.2 | 70 | 100 | 89 | 80 | 88 | 73 | 91
3 | CNc1nc(Nc2ccc(P3(=O)CCN(C4CCOCC4)CC3)cc2OC)nc2[nH]cc(Cl)c12 [Compound 77, 4-(4-((5-chloro-4-(methylamino)-7H-pyrrolo[2,3-d]pyrimidin-2-yl)amino)-3-methoxyphenyl)-1-(tetrahydro-2H-pyran-4-yl)-1,4-azaphosphinane 4-oxide] | 14 | 88 | 100 | 93 | 84 | 98 | 65 | 100
